The target of experiment [1] is T1, NET (Rattus norvegicus, UniProt Q63380). The experiment can be described thus: Inhibition of [3H]nisoxetine binding at the NET.
A further experiment concerns the target 5-HTT (Rattus norvegicus, UniProt P31652). The experiment can be described thus: Inhibition of [3H]paroxetine binding at the 5-HTT. Particulars: for NET/5-HTT Ratio: ratio of Ki values of NET/5-HTT, selectivity for the 5-HTT relative to the NET; for Ki: 5-HTT, Ki [3H]paroxetine.
A further experiment has as its target DAT (Rattus norvegicus, UniProt P23977). Nature of the experiment: Inhibition of [3H]WIN35,428 binding at the DAT.
For experiment [2], the target named is T1, NET. Particulars: read-out: NET, Ki [3H]nisoxetine; inhibition of [3H]nisoxetine binding; cited from earlier work.
Setting [3] is: relative to N-methyl compound 7a.

This is an account of results in publication PMC2747657 (Bioorganic & medicinal chemistry, 2009).

Read-outs that look alike come from different tables or passages of the source. Where only a bound is given, the exact number is not on record here.

Chain of 5-HTT (P31652 whole entry): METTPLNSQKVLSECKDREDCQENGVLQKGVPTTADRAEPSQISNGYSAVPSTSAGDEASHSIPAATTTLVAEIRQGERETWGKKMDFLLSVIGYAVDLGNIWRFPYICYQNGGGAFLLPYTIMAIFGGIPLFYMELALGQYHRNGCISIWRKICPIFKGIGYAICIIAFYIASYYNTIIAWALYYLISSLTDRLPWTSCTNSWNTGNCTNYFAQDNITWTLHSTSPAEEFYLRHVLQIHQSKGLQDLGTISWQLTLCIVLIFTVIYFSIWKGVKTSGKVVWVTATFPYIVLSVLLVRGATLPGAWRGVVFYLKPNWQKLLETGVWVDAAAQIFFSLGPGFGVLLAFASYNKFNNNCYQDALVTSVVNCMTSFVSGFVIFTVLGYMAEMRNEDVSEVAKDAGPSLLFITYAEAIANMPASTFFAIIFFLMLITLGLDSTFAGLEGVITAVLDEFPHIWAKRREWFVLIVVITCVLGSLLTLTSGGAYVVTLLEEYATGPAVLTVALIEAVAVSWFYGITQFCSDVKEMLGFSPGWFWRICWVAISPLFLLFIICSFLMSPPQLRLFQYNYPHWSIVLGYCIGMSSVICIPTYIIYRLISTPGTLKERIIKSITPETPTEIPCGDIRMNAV
T1 sequence (Q63380 1-617): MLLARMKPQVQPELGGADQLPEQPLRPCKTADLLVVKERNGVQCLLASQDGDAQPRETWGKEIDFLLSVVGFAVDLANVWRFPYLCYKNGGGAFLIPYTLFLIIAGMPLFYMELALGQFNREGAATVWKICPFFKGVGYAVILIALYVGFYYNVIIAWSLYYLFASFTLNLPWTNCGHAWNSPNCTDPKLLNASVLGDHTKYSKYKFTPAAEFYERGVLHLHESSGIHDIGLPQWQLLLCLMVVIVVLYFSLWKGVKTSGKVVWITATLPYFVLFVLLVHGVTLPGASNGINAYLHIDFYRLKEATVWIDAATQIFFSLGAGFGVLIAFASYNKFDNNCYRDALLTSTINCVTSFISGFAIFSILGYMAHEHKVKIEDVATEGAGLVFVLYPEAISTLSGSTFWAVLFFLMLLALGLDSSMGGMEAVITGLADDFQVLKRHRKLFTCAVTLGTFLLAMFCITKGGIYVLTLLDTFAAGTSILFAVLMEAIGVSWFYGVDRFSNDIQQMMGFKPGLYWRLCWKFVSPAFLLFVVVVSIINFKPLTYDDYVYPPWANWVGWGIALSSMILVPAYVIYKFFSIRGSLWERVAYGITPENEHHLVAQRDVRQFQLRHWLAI
Chain of DAT (P23977 whole entry): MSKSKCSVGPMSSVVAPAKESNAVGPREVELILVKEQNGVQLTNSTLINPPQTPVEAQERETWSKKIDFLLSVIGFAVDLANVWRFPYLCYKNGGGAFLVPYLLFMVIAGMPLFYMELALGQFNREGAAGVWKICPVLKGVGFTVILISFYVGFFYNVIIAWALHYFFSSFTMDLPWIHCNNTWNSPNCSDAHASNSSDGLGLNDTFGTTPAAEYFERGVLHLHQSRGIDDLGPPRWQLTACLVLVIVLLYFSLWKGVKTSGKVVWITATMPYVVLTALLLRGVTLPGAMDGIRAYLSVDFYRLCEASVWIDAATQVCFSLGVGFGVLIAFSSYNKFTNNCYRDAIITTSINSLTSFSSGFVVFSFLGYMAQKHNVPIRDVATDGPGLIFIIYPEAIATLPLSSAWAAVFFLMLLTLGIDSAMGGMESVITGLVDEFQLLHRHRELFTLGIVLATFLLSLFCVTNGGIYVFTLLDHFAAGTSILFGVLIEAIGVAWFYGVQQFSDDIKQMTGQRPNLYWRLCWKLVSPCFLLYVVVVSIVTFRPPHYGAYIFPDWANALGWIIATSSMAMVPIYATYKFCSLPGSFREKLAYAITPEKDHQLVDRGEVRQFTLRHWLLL

In the case of `COC(=O)[C@H]1[C@@H](c2ccc([S+](C)[O-])c(Br)c2)C[C@@H]2CC[C@H]1N2C` (stereo partly drawn) [7f, 3β-(3-bromo-4-methylsulfinylphenyl)tropane-2β-carboxylic acid methyl ester], affinity on NET [1] was put at a Ki of 690 ± 80 nM.
As for `C=CCN1C2CCC1[C@@H](C(=O)OC)[C@@H](c1ccc(SC)cc1)C2` (stereo partly drawn) [10a, 3β-(4-Methylthiophenyl)-8-allylnortropane-2β-carboxylic acid methyl ester], the “NET/5-HTT Ratio” value on 5-HTT is listed as 314-364.
Consider `COC(=O)[C@H]1[C@@H](c2ccc(SC(C)C)cc2)C[C@@H]2CC[C@H]1N2C` [7c, 3β-(4-Isopropylthiophenyl)tropane-2β-carboxylic acid methyl ester], for which the Ki (usually the dissociation constant of the complex between target and ligand, obtained from inhibition or displacement) at 5-HTT was determined as 129 nM; on NET [1] it was 129 ± 2 nM.
As to `COC(=O)[C@H]1[C@@H](c2ccc(S(C)(=O)=O)cc2)C[C@@H]2CC[C@H]1N2C` [7h, 3β-(4-Methylsulfonylphenyl)tropane-2β-carboxylic acid methyl ester], the 50% inhibitory concentration (IC50) (as a rule, the midpoint of a concentration-inhibition curve) at DAT was over 10000 nM. Moreover, the Ki at 5-HTT was 208 ± 45 nM; at NET [1], over 10000 nM.
`COC(=O)[C@@H]1C2CCC(C[C@@H]1c1ccc(SC)cc1)N2CCCF` (stereo partly drawn) [9a, 3β-(4-Methylthiophenyl)-8-(3-fluoropropyl)nortropane-2β-carboxylic acid methyl ester]: the “NET/5-HTT Ratio” value on 5-HTT is 314-364.
Regarding `COC(=O)[C@H]1[C@@H](c2ccc(SC(F)(F)F)cc2)C[C@@H]2CC[C@H]1N2C` [7d, 3β-(4-Trifluoromethylthiophenyl)tropane-2β-carboxylic acid methyl ester], affinity at NET [1] was put at a Ki of 1900 ± 300 nM.
For `COC(=O)[C@H]1[C@@H](c2ccc([S+](C)[O-])cc2)C[C@@H]2CC[C@H]1N2C` (stereo partly drawn) [7g, 3β-(4-methylsulfinylphenyl)tropane-2β-carboxylic acid methyl ester], the figures for the Ki on 5-HTT and on NET [1] were 4.3 ± 0.6 nM and 515 ± 60 nM, respectively.
The compound `COC(=O)[C@H]1[C@@H](c2ccc(SC)c(Br)c2)C[C@@H]2CC[C@H]1N2C` [7e, 3β-(3-Bromo-4-methylthiophenyl)tropane-2β-carboxylic acid methyl ester] showed a Ki at NET [1] of 121 ± 12 nM.
Turning to `COC(=O)[C@@H]1C2CCC(C[C@@H]1c1ccc(SC)cc1)N2` (stereo partly drawn) [8a, 3β-(4-Methylthiophenyl)nortropane-2β-carboxylic acid methyl ester], the “fold less affinity at the DAT” value at DAT (setting [3]) is given as 3 fold. For the same compound, the “fold increase in affinity at the 5-HTT” value on 5-HTT (setting [3]) was “approximately 4 fold”. Besides, the “fold increase in affinity at the NET” value on NET [1] (setting [3]) is on record as about 10 fold.
`COC(=O)[C@H]1[C@@H](c2ccc(SC)cc2)C[C@@H]2CC[C@H]1N2C` [7a, 3β-(4-Methylthiophenyl)tropane-2β-carboxylic acid methyl ester]: on 5-HTT, the Ki turned out to be 220 nM and the “NET/5-HTT Ratio” value is on record as 314-364. The inhibitory constant (Ki) on NET [1] is 220 ± 10 nM.
As to `CCSc1ccc([C@H]2C[C@@H]3CC[C@H]([C@H]2C(=O)OC)N3C)cc1` [7b, 3β-(4-Ethylthiophenyl)tropane-2β-carboxylic acid methyl ester], the inhibition constant (Ki) at 5-HTT is 4.5 ± 0.5 nM; at NET [1], 1170 ± 300 nM.
On to `COC(=O)[C@H]1[C@@H](c2ccc(OC)cc2)C[C@@H]2CC[C@H]1N2C` [compound 5, 3β-(4-methoxyphenyl)tropane-2β-carboxylic acid methyl ester], for which the inhibitory constant (Ki) on NET [2] was 1110 ± 64 nM.
